According to ChEMBL document CHEMBL6177968, “Development of sulfamoylbenzamide-based capsid assembly modulators for hepatitis B virus capsid assembly” (Eur J Med Chem, 2025):

Key:
[1] = Selectivity index, ratio of CC50 for cytotoxicity in human HepG2.2.15 cells assessed as reduction in cell viability to EC50 for antiviral activity against HBV in human HepG2.2.15 cells assessed as reduction in viral replication; format: toxicity, cell-based; conditions: read-out: Ratio CC50/EC50
[2] = Metabolic stability in mouse liver microsomes assessed as compound remaining measured after 30 mins; format: ADME, Microsome; conditions: read-out: Stability
[3] = Metabolic stability in rat liver microsomes assessed as compound remaining measured after 30 mins; format: ADME, Microsome; conditions: read-out: Stability
[4] = Metabolic stability in human liver microsomes assessed as compound remaining measured after 30 mins; format: ADME, Microsome; conditions: read-out: Stability
[5] = Stability in human plasma assessed as compound remaining incubated for 4 hrs; format: ADME, cell-free; conditions: read-out: Stability
[6] = Plasma protein binding in mouse; format: ADME, cell-free; conditions: read-out: PPB (converted)
[7] = Plasma protein binding in human; format: ADME, cell-free; conditions: read-out: PPB (converted)
[8] = Cytotoxicity in HFL1 cells; format: toxicity, cell-based; conditions: human
[9] = Cytotoxicity in mouse L929 cells; format: toxicity, cell-based
[10] = Cytotoxicity in mouse NIH3T3 cells; format: toxicity, cell-based
[11] = Cytotoxicity in CHO-K1 cells; format: toxicity, cell-based, Cricetulus griseus; conditions: Chinese hamster
[12] = target: T1, Cytochrome P450 1A2 (Homo sapiens, UniProt P05177); experiment: Inhibition of CYP1A2 in human liver microsome; format: ADME, microsomes
T1 sequence (P05177 whole entry): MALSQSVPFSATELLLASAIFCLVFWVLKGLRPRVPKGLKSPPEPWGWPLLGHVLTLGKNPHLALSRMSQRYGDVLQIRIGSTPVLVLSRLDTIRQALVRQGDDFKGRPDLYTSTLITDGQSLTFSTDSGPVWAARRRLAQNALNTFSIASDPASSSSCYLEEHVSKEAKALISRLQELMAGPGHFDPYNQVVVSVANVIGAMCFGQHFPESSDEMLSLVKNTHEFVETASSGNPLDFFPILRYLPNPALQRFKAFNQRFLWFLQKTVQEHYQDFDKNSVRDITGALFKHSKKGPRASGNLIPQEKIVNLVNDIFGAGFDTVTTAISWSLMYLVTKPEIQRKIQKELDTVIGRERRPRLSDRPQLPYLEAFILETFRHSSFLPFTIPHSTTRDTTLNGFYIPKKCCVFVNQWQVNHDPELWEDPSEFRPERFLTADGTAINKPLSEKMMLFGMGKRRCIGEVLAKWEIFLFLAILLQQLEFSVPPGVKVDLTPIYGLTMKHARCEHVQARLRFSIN

[13] = target: Cytochrome P450 2C9 (Homo sapiens, UniProt P11712); experiment: Inhibition of CYP2C9 in human liver microsome; format: ADME, microsomes
Sequence of Cytochrome P450 2C9 (P11712 whole entry): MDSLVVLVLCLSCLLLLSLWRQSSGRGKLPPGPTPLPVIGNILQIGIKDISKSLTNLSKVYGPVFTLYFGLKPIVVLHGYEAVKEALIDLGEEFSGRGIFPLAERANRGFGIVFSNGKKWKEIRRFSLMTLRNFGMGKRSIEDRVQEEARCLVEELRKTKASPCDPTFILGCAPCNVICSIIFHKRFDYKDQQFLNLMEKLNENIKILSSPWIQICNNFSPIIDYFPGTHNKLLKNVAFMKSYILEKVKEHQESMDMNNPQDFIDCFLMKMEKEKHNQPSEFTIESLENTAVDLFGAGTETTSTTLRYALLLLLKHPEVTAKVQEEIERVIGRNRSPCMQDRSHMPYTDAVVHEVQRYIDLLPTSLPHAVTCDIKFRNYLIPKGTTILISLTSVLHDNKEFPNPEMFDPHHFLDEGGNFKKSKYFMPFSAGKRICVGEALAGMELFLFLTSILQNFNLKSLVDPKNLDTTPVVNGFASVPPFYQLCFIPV

[14] = target: Cytochrome P450 2C19 (Homo sapiens, UniProt P33261); experiment: Inhibition of CYP2C19 in human liver microsome; format: ADME, microsomes
Sequence of Cytochrome P450 2C19 (P33261 whole entry): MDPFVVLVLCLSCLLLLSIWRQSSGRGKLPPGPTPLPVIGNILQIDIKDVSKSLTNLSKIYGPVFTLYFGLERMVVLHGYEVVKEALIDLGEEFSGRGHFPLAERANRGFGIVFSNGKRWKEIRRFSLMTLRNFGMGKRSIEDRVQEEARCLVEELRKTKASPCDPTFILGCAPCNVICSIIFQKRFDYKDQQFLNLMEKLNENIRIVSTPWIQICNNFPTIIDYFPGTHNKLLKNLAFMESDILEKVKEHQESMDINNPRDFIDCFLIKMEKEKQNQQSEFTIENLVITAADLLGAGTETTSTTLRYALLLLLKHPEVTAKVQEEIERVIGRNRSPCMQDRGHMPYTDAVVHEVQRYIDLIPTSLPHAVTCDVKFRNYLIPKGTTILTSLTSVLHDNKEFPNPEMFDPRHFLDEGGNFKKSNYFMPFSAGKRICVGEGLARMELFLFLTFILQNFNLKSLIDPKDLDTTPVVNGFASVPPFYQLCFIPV

[15] = target: Cytochrome P450 2D6 (Homo sapiens, UniProt P10635); experiment: Inhibition of CYP2D6 in human liver microsome; format: ADME, microsomes
Sequence of Cytochrome P450 2D6 (P10635 whole entry): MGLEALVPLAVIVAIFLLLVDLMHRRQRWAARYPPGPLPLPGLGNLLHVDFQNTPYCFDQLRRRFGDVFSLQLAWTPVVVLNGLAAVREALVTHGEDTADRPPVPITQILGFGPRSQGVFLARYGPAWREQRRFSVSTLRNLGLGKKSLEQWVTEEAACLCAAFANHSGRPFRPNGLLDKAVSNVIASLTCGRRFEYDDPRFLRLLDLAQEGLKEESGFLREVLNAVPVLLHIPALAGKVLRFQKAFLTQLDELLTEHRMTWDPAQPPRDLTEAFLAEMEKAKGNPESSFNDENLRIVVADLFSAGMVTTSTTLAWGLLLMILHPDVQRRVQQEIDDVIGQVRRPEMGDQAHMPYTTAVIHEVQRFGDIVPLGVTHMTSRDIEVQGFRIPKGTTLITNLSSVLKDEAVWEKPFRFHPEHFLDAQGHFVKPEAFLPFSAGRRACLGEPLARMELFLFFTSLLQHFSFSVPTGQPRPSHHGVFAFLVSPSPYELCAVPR

[16] = target: Cytochrome P450 3A4 (Homo sapiens, UniProt P08684); experiment: Inhibition of CYP3A4 in human liver microsome; format: ADME, microsomes
Sequence of Cytochrome P450 3A4 (P08684 whole entry): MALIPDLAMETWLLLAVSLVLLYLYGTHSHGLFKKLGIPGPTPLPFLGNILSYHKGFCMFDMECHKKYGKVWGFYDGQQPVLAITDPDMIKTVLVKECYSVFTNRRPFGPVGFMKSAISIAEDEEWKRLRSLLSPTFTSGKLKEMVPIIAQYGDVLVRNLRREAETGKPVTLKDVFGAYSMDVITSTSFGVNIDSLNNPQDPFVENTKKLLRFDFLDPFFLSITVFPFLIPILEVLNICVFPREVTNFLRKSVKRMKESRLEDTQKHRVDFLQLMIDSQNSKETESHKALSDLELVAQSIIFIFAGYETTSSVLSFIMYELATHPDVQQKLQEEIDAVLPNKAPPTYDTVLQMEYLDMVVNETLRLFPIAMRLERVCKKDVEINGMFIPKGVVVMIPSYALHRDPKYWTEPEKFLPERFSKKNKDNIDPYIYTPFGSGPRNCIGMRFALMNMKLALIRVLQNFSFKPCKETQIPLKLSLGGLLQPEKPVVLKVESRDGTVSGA

[17] = target: Voltage-gated inwardly rectifying potassium channel KCNH2 (Homo sapiens, UniProt Q12809); experiment: Inhibition of human ERG; format: toxicity
Sequence of Voltage-gated inwardly rectifying potassium channel KCNH2 (Q12809 whole entry): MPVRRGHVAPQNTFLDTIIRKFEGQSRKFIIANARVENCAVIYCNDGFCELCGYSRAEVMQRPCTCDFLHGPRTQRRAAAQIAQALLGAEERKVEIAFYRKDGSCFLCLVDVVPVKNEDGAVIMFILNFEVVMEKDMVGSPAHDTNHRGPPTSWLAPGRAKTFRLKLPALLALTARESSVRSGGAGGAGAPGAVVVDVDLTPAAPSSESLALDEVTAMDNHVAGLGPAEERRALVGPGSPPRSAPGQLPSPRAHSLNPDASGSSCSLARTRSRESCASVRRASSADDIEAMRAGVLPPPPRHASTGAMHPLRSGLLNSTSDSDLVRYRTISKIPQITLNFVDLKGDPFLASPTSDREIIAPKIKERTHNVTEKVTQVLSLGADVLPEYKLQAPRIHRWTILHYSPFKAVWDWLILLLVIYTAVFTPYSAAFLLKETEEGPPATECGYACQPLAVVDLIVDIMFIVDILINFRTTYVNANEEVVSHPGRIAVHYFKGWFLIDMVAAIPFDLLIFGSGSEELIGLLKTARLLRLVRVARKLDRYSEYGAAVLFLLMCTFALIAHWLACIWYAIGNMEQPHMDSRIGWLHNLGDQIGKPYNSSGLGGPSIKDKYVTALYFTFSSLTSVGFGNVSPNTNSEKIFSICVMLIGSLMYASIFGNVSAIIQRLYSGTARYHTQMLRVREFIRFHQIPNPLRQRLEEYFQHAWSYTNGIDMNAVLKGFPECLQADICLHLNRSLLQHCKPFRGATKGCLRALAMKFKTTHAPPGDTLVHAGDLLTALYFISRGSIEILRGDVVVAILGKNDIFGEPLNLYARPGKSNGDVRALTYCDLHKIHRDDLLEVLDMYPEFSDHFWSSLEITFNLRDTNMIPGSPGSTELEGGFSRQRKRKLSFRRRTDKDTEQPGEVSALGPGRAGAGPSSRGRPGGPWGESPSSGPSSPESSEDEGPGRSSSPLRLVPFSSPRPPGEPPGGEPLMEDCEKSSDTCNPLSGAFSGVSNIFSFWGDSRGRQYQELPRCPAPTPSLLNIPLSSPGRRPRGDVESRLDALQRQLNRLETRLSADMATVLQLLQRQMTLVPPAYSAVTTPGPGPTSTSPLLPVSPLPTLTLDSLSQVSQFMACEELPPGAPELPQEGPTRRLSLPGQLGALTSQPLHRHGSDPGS

[18] = Cytotoxicity in human HepG2-hNTCP cells assessed as reduction in cell viability; format: toxicity, cell-based
[19] = Selectivity index, ratio of CC50 for cytotoxicity in human HepG2-hNTCP cells assessed as reduction in cell viability to EC50 for antiviral activity against HBV in human HepG2-hNTCP cells assessed as reduction in viral replication; format: toxicity, cell-based; conditions: read-out: Ratio CC50/EC50
[20] = Half life in male mouse at 5 mg/kg, iv; format: ADME, organism-based; conditions: in vivo
[21] = AUClast in male mouse at 5 mg/kg, iv; format: ADME, organism-based; conditions: in vivo
[22] = Volume of distribution at steady state in male mouse at 5 mg/kg, iv; format: ADME, organism-based; conditions: in vivo, read-out: Vdss
[23] = Half life in male mouse at 20 mg/kg, iv; format: ADME, organism-based; conditions: in vivo
[24] = AUClast in male mouse at 20 mg/kg, iv; format: ADME, organism-based; conditions: in vivo
[25] = Clearance in male mouse at 20 mg/kg, iv; format: ADME, organism-based; conditions: in vivo
[26] = Cmax in male mouse at 5 mg/kg, po; format: ADME, organism-based; conditions: in vivo
[27] = Half life in male mouse at 5 mg/kg, po; format: ADME, organism-based; conditions: in vivo
[28] = AUClast in male mouse at 5 mg/kg, po; format: ADME, organism-based; conditions: in vivo
[29] = AUC (0 to infinity) in male mouse at 5 mg/kg, po; format: ADME, organism-based; conditions: in vivo
[30] = Oral bioavailability in male mouse at 5 mg/kg; format: ADME, organism-based; conditions: in vivo
[31] = Tmax in male mouse at 20 mg/kg, po; format: ADME, organism-based; conditions: in vivo
[32] = Cmax in male mouse at 20 mg/kg, po; format: ADME, organism-based; conditions: in vivo
[33] = Half life in male mouse at 20 mg/kg, po; format: ADME, organism-based; conditions: in vivo
[34] = AUClast in male mouse at 20 mg/kg, po; format: ADME, organism-based; conditions: in vivo
[35] = AUC (0 to infinity) in male mouse at 20 mg/kg, po; format: ADME, organism-based; conditions: in vivo
[36] = Oral bioavailability in male mouse at 20 mg/kg; format: ADME, organism-based; conditions: in vivo
[37] = tested on: Hepatitis B virus; experiment: Antiviral activity against HBV infected in human HepG2 cells expressing NTCP assessed as fold reduction in capsid associated viral DNA level at 1 uM incubated for 6 days by Southern blot analysis relative to control; format: functional; conditions: time 6 day
[38] = tested on: Hepatitis B virus; experiment: Antiviral activity against HBV infected in human HepG2 cells expressing NTCP assessed as capsid level at 1 uM incubated for 6 days by Western blot analysis (reference value: 100 %); format: functional; conditions: time 6 day
[39] = tested on: Hepatitis B virus; experiment: Antiviral activity against HBV infected in human HepG2 cells expressing NTCP assessed as capsid associated HBV DNA level at 1 uM incubated for 6 days by Western blot analysis (reference value: 100 %); format: functional; conditions: time 6 day
[40] = tested on: HepG2; experiment: Effect on viral rcDNA level in human HepG2 cells expressing NTCP infected with HBV at 1 uM incubated for 6 days by Southern blot analysis; format: functional, cell-based; conditions: time 6.0 day
[41] = tested on: HepG2; experiment: Effect on viral dslDNA level in human HepG2 cells expressing NTCP infected with HBV at 1 uM incubated for 6 days by Southern blot analysis; format: functional, cell-based; conditions: time 6.0 day
[42] = tested on: HepG2; experiment: Effect on viral ssDNA level in human HepG2 cells expressing NTCP cells infected with HBV at 1 uM incubated for 6 days by Southern blot analysis; format: functional, cell-based; conditions: time 6.0 day
[43] = tested on: Hepatitis B virus; experiment: Antiviral activity against HBV infected in human HepG2 cells expressing NTCP assessed as fold increase in intracellular capsid level at 1 uM incubated for 6 days by Western blot analysis relative to control; format: functional; conditions: time 6 day
[44] = tested on: Hepatitis B virus; experiment: Antiviral activity against HBV infected in human HepG2 cells expressing NTCP assessed as decrease in intracellular HBc level at 1 uM incubated for 6 days by indirect immunofluorescence staining based analysis; format: functional, organism-based; conditions: time 6.0 day
[45] = tested on: Hepatitis B virus; experiment: Antiviral activity against HBV infected in human HepG2 cells expressing NTCP assessed as intracellular HBc level at 1 uM incubated for 6 days by Western blot analysis (reference value: 100 %); format: functional; conditions: time 6 day
[46] = tested on: Hepatitis B virus; experiment: Antiviral activity against HBV infected in human HepG2 cells expressing NTCP assessed as ratio of capsid associated HBV DNA level at 1 uM incubated for 6 days by Western blot analysis (reference value: 100 %); format: functional; conditions: time 6 day

Nc1cc(F)c(S(=O)(=O)NC2COC2)cc1C(=O)Nc1ccc(F)c(C(F)F)c1
selectivity ratio [1]: > 17500 | remaining at 0.5 h [2]: 56.8% | remaining at 0.5 h [3]: 45.4% | remaining at 0.5 h [4]: > 100% | remaining at 4 h [5]: 94% | fraction unbound [6]: 0.143 | fraction unbound [7]: 0.128 | IC50 [8]: > 100 µM | IC50 [9]: > 100 µM | IC50 [10]: > 100 µM | IC50 [11]: > 100 µM | IC50 [12]: > 100 µM | IC50 [13]: > 100 µM | IC50 [14]: > 100 µM | IC50 [15]: > 100 µM | IC50 [16]: > 100 µM | IC50 [17]: > 10 µM | CC50 [18]: 63.2 µM | selectivity ratio [19]: 3160 | half-life [20]: 533 min | AUC(0-t) [21]: 850 ng·h/mL | Vd [22]: 29.1 L/kg | half-life [23]: 576 min | AUC(0-t) [24]: 4610 ng·h/mL | clearance [25]: 65.5 mL/min/kg | Cmax [26]: 540 ng/mL | half-life [27]: 55.2 min | AUC(0-t) [28]: 560 ng·h/mL | AUC(0-inf) [29]: 570 ng·h/mL | bioavailability [30]: 66.2% | Tmax [31]: 25.2 min | Cmax [32]: 370 ng/mL | half-life [33]: 52.2 min | AUC(0-t) [34]: 270 ng·h/mL | AUC(0-inf) [35]: 280 ng·h/mL | bioavailability [36]: 5.89% | fold change (FC) [37]: 16 | Activity [38]: 205% | Activity [39]: 14% | Activity [40]: No effect | Activity [41]: No effect | Activity [42]: No effect | fold change (FC) [43]: ~2 | Activity [44]: Active; Compound Modestly Decreased Hbc Level | Activity [45]: 113% | Ratio [46]: 6%
